What all share (assay): NCI-60 cell line screen, 48 h
In test [1] the test system is RXF 393 renal.
For test [2], the system named is SK-OV-3 ovarian.
Test [3] has as its system HL-60(TB) leukemia.
Test [4] has as its system SNB-75 CNS.
For test [5], the system named is 786-0 renal.
Test [6] deals with OVCAR-4 ovarian.
Test [7] deals with M14 melanoma.
Test [8] concerns HOP-62 NSCLC.
The subject of test [9] is UACC-257 melanoma.
Test [10] deals with OVCAR-8 ovarian.

The values that follow come from PubChem BioAssay (NCI).

SMILES strings stand for the structures. Where “and” joins values, the source holds several entries; their conditions need not be identical. Identical values can stand only once.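 Step 1: Grow cells in 96-well plates. Step 2: Expose to compound for 48 hours at 5 concentrations. Step 3: Interpolate endpoints linearly; if unreached, use highest concentration. GI50 is the concentration that inhibits growth by half. At the TGI there is no net growth.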

As to `O=C(NC(=S)Nc1ccc(-c2nc3ccccc3[nH]2)cc1)c1ccc2ccccc2c1`, the GI50 was 1.92 µM in test [1]; 12.8 µM in test [2]; 6.31 µM in test [3]; 1.46 µM in [4]; 1.88 µM in test [5]; 2.78 µM in [6]. In addition, the GI50 in [7] was 4.79 µM; in [8] it was 2.41 µM; in test [9] it was 5.59 µM; in test [10], 4.11 µM. The TGI in [1] amounted to 3.77 µM; in [2], 37 µM; in test [3] it was 26 µM; in test [4], 3.38 µM; in test [5] it was 3.52 µM; in [6], 9.22 µM. For the same molecule, the TGI in test [7] was > 100 µM; in test [8], 5.58 µM; in test [9], > 100 µM; in test [10], > 100 µM.

Take `CCC(CO)COC(=O)/C=C/C(=O)OCC(CC)CO` (stereo not given): the TGI in test [1] is > 100 µM; in [2] it was > 100 µM; in [3], 45.5 µM; in test [4], > 100 µM; in test [5] it was > 100 µM; in [6], > 100 µM. The TGI in test [7], in test [8], in [9] and in test [10] was > 100 µM in each case.

`O=C(/C=C/c1cccnc1)c1ccccc1`: the GI50 in [1] was 10.9 µM; in test [2], 14.6 µM; in test [3] it was 7.02 µM; in [4], 15.6 µM; in test [5] it was 7.9 µM; in test [6], 13 µM. In addition, the GI50 in test [8] was 13.7 µM; in test [9], 10.4 µM; in test [10], 12.2 µM. The TGI was 23.2 µM in test [1]; 27.9 µM in test [2]; 28.8 µM in [3]; 34.6 µM in test [4]; 21.4 µM in [5]; 26.5 µM in test [6]. Further, the TGI was determined as 26.8 µM in [8], 22.7 µM in test [9] and 25.9 µM in test [10].

For the molecule `CC[n+]1c(/C=C/c2ccc(N3CCCC3)cc2)cccc1/C=C/c1ccc(N2CCCC2)cc1`, the GI50 is 0.207 µM in test [1]; 0.228 µM in test [2]; 0.049 µM and 0.391 µM in [3]; 0.16 µM in [4]; 0.247 µM in test [5]; 0.0386 µM in [6]. Moreover, the GI50 in test [7] was 0.345 µM; in [8] it was 0.414 µM; in test [9] it was 0.19 µM; in [10] it was 0.248 µM and 0.124 µM. Besides, the TGI in test [1] worked out at 1.51 µM; in test [2], 0.897 µM; in [4], 0.88 µM; in test [5], 1.2 µM; in test [6] it was 1.29 µM; in [7], 1.85 µM. Further, the TGI in [8] is 1.46 µM; in [9], 0.773 µM; in [10], 1.61 µM and 0.953 µM.

Regarding `COc1ccc2c(c1)OC(N)=C(C#N)C2c1ccc(F)c(F)c1` (stereo not given), the GI50 in test [1] was 0.365 µM; in [2], 0.495 µM; in test [3], 0.272 µM; in test [4], 0.186 µM; in test [5], 0.595 µM; in test [6], 2.33 µM. In addition, the GI50 in test [7] was 0.325 µM; in test [8], 0.515 µM; in test [9] it was 0.408 µM; in test [10], 0.602 µM. In addition, the TGI is 5.57 µM in test [1]; > 64.1 µM in test [2]; 0.716 µM in test [3]; 4.87 µM in test [4]; > 96.6 µM in test [5]; > 100 µM in test [6]. For the same molecule, the TGI in test [7] is > 100 µM; in [8] it was > 92.2 µM; in test [9], > 100 µM; in [10] it was > 44.3 µM.

As to `C=CCC1=C2CCCCC2CCC1=O` (stereo not given), the TGI in [1], in [2], in test [3], in [4], in test [5] and in test [6] was > 100 µM in each case. Further, the TGI in test [7], in test [8], in test [9] and in test [10] was > 100 µM each time.

For `Nc1c2ccccc2nc2nccnc12`, the TGI in [1], in test [2], in test [3], in [4], in [5] and in test [6] was > 100 µM each time. Besides, the TGI in test [7], in test [8], in [9] and in test [10] was > 100 µM throughout.

For `Nc1ncnc2occ(-c3ccc(NC(=O)Nc4cc(C(F)(F)F)ccc4F)cc3)c12`, the GI50 is 2.95 µM and 1.11 µM in test [1]; 8.24 µM and 4.19 µM in test [2]; 6.88 µM and 6.16 µM in test [3]; 3.87 µM and 3.93 µM in [4]; 6.63 µM and 4.43 µM in test [5]; 4.2 µM and 2.36 µM in test [6]. The GI50 in test [7] is 5.86 µM and 2.54 µM; in [8], 6.32 µM and 2.3 µM; in test [9], 6.19 µM and 4.11 µM; in [10] it was 4.76 µM and 1.95 µM. For the same molecule, the TGI in [1] was 7.06 µM and 3.92 µM; in [2], 25 µM and 12.6 µM; in [3], 16 µM and 14.7 µM; in test [4] it was 9.56 µM and 10.3 µM; in [5], 16.4 µM and 10.3 µM; in [6], 17.1 µM and 14.6 µM. For the same molecule, the TGI is 21.4 µM and 7.11 µM in test [7]; 16.2 µM and 5.95 µM in [8]; 15.6 µM and 8.64 µM in test [9]; 16.6 µM and 5.76 µM in test [10].

Consider `CSc1nc(SC)c2cnn(-c3ccnc4cc(Cl)ccc34)c2n1`, for which the GI50 is 14.2 µM in test [1]; > 81.1 µM in [2]; 21.5 µM in [3]; > 67.8 µM in [4]; 38.6 µM in test [5]; > 100 µM in test [6]. In addition, the GI50 in test [7] was 34.8 µM; in [8], 29.1 µM; in test [9], > 49.7 µM; in [10], > 56.5 µM. In addition, the TGI in [1] was 48.6 µM; in [2], > 100 µM; in [3] it was 50.6 µM; in test [4], > 100 µM; in [5], > 100 µM; in test [6], > 100 µM. In addition, the TGI in [7] is > 94.7 µM; in test [8], > 96.1 µM; in test [9], > 86.4 µM; in [10], > 100 µM.

Consider `CCOC(=O)c1cc2c(OC)cc(OC)cc2oc1=O`, for which the TGI in [1], in [3], in [4], in test [5], in test [6] and in test [7] was > 100 µM in each case. Besides, the TGI in [8], in [9] and in test [10] was > 100 µM in each case.

As to `COc1ccc(C(=O)O[C@@H]2CCN3CC[C@H](C)[C@H]23)cc1`, the TGI in [1], in test [2], in test [3], in test [4], in test [5] and in test [7] was > 100 µM throughout. In addition, the TGI in test [8], in [9] and in test [10] was > 100 µM throughout.

Turning to `CCOC(=O)c1sc(Nc2cc(Cl)ccc2Cl)nc1C`, the TGI in test [1], in test [3], in test [4], in test [5], in test [6] and in test [8] was > 100 µM in each case. Further, the TGI in [9] and in [10] was > 100 µM each time.

Turning to `CN1C(=O)CNS1(=O)=O`, the TGI in [1], in test [2], in [3], in [4], in [5] and in [7] was > 100 µM in each case. The TGI in [8], in [9] and in test [10] was > 100 µM throughout.

For the molecule `COc1ncnn2ccc(-c3cnc4nc(C)n(Cc5nnc(C(C)F)o5)c4c3)c12` (stereo not given), the GI50 is 0.247 µM in test [1]; 0.0716 µM in test [2]; 0.367 µM in [3]; 0.191 µM in test [4]; 0.273 µM in [5]; 0.278 µM in test [6]. In addition, the GI50 in [7] was 0.24 µM; in test [9], 0.265 µM; in test [10] it was 0.245 µM. Also, the TGI in [1] is 0.665 µM; in test [2], > 100 µM; in test [4], 1.75 µM; in test [5], > 100 µM; in test [6], 0.995 µM; in test [7], > 40.5 µM. For the same molecule, the TGI in [9] and in test [10] was > 100 µM each time.

For the molecule `NC(=S)N/N=C/c1cn(CCCl)c2ccccc12`, the TGI in [1] was > 100 µM; in test [2], > 100 µM; in [3], 53.8 µM; in [4], 86 µM; in test [5], > 100 µM; in [7], > 100 µM. The TGI in test [8], in [9] and in test [10] was > 100 µM each time.

Consider `O=C([CH-]C(=O)c1ccccc1)c1ccccc1.O=C([CH-]C(=O)c1ccccc1)c1ccccc1.[CH2-]CCC.[CH2-]CCC.[Sn+4]`, for which the GI50 in [1] is 0.128 µM; in [3] it was 0.169 µM; in test [4] it was 1.04 µM; in test [5] it was 0.313 µM; in test [7], 0.394 µM; in test [8], 1.95 µM. Further, the GI50 in test [10] is 0.939 µM. In addition, the TGI in [1] was 0.416 µM; in [3], 0.606 µM; in test [4], 2.29 µM; in test [5], 1.35 µM; in [7], 1.59 µM; in test [8], 3.41 µM. This molecule also registered a TGI in test [10] of 2.46 µM.

Turning to `CNC(=O)N(CCCC(NC(C)=O)C(=O)NCc1ccccc1)Cc1ccccc1` (stereo not given), the TGI in test [1], in [2], in test [4], in test [5], in test [6] and in [7] was > 100 µM each time. Also, the TGI in [8], in test [9] and in [10] was > 100 µM throughout.

In the case of `Cc1ccccc1C(C#N)/C(=N/NC(N)=S)C(=O)Nc1c(C)cccc1C` (stereo not given), the TGI in test [1], in [3], in [4], in test [5], in test [6] and in [7] was > 100 µM in each case. Also, the TGI in test [8], in [9] and in test [10] was > 100 µM in each case.

For `COC1OC(CO)C(O)C(NC(=O)N(C)N=O)C1O` (stereo not given), the TGI in [1], in test [2], in test [3], in test [4], in test [5] and in test [6] was > 100 µM in each case. For the same molecule, the TGI in [7] and in [10] was > 100 µM each time.

In the case of `S=C1NC(c2ccccc2)=NC(Cc2ccccc2)(c2ccccc2)N1c1ccccc1` (stereo not given), the TGI in test [1] is > 100 µM; in test [3] it was > 100 µM; in test [4], 57.1 µM; in test [5], > 100 µM; in test [6], > 100 µM; in test [7] it was > 100 µM. For the same molecule, the TGI in test [8], in [9] and in test [10] was > 100 µM throughout.

Turning to `CN(CC(=O)O)S(=O)(=O)c1ccc(Cl)cc1`, the TGI in test [1], in test [2], in [3], in test [4], in test [5] and in [6] was > 100 µM throughout. For the same molecule, the TGI in [7], in [9] and in test [10] was > 100 µM in each case.

Turning to `O=C(O)c1cc(C(=O)C(=O)c2cc(C(=O)O)c(O)c3ccccc23)c2ccccc2c1O`, the TGI in test [1], in [2], in test [4], in test [5], in [6] and in test [7] was > 100 µM throughout. The TGI in test [8], in test [9] and in test [10] was > 100 µM each time.
